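Five compound concentrations were applied to cells in 96-well plates for 48 hours; endpoints were derived by simple linear interpolation of the resulting dose-response curve. GI50: concentration for 50% inhibition of growth. TGI: concentration producing complete growth inhibition.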
Columns and labels:
Test in all cases: NCI anticancer screen, dose series, 48 h
SK-MEL-28 melanoma = tested on: SK-MEL-28 melanoma
KM12 colon = tested on: KM12 colon
MDA-MB-231 breast = tested on: MDA-MB-231 breast
786-0 renal = tested on: 786-0 renal
RPMI-8226 leukemia = tested on: RPMI-8226 leukemia
SR leukemia = tested on: SR leukemia
NCI/ADR-RES ovarian = tested on: NCI/ADR-RES ovarian
OVCAR-4 ovarian = tested on: OVCAR-4 ovarian
K-562 leukemia = tested on: K-562 leukemia
NCI-H23 lung = tested on: NCI-H23 lung

CCOC(=O)c1cc(-c2ccccc2)[nH]c1N/N=C/c1c(Cl)cccc1Cl
GI50 (SK-MEL-28 melanoma): 3.35 µM | TGI (SK-MEL-28 melanoma): > 75 µM | GI50 (KM12 colon): 0.584 µM | TGI (KM12 colon): 24.3 µM | GI50 (MDA-MB-231 breast): 3.7 µM | TGI (MDA-MB-231 breast): 25.4 µM | GI50 (786-0 renal): 1.39 µM | TGI (786-0 renal): 49 µM | GI50 (RPMI-8226 leukemia): 2.11 µM | TGI (RPMI-8226 leukemia): 11.3 µM | GI50 (SR leukemia): 0.413 µM | TGI (SR leukemia): 10.2 µM | GI50 (NCI/ADR-RES ovarian): 0.509 µM | TGI (NCI/ADR-RES ovarian): 14.6 µM | GI50 (OVCAR-4 ovarian): 13.4 µM | TGI (OVCAR-4 ovarian): > 100 µM | GI50 (K-562 leukemia): 0.491 µM | TGI (K-562 leukemia): 13.7 µM | GI50 (NCI-H23 lung): 1.33 µM | TGI (NCI-H23 lung): 40.4 µM

CCCCCCSc1nc(COC(=O)NC)c(COC(=O)NC)n1C
TGI (SK-MEL-28 melanoma): > 100 µM | TGI (KM12 colon): > 100 µM | TGI (MDA-MB-231 breast): > 100 µM | TGI (786-0 renal): > 100 µM | TGI (RPMI-8226 leukemia): > 100 µM | TGI (SR leukemia): > 100 µM | TGI (NCI/ADR-RES ovarian): > 100 µM | TGI (OVCAR-4 ovarian): > 100 µM | TGI (K-562 leukemia): > 100 µM | TGI (NCI-H23 lung): > 100 µM

CNCCN(C)Cc1cn[nH]c1-c1ccc(OC2CC(OCCC3CCOCC3)C2)cc1 (stereo not given)
GI50 (SK-MEL-28 melanoma): > 67.9 µM | TGI (SK-MEL-28 melanoma): > 100 µM | GI50 (KM12 colon): > 83.9 µM | TGI (KM12 colon): > 100 µM | GI50 (MDA-MB-231 breast): 40.7 µM | TGI (MDA-MB-231 breast): > 100 µM | GI50 (786-0 renal): > 100 µM | TGI (786-0 renal): > 100 µM | GI50 (RPMI-8226 leukemia): 44.4 µM | TGI (RPMI-8226 leukemia): > 100 µM | GI50 (SR leukemia): 25.9 µM | TGI (SR leukemia): > 100 µM | GI50 (NCI/ADR-RES ovarian): > 100 µM | TGI (NCI/ADR-RES ovarian): > 100 µM | GI50 (OVCAR-4 ovarian): > 85 µM | TGI (OVCAR-4 ovarian): > 100 µM | GI50 (K-562 leukemia): 33.3 µM | TGI (K-562 leukemia): > 100 µM | GI50 (NCI-H23 lung): > 91.7 µM | TGI (NCI-H23 lung): > 100 µM

Cc1c(O)c(Br)c(C)c(O)c1Br (tested in a mixture with another compound)
TGI (SK-MEL-28 melanoma): 3.56 µM | TGI (KM12 colon): 41.2 µM | TGI (MDA-MB-231 breast): 25.5 µM | TGI (786-0 renal): 3.2 µM | TGI (RPMI-8226 leukemia): 6.06 µM | TGI (SR leukemia): 3.28 µM | TGI (NCI/ADR-RES ovarian): > 100 µM | TGI (OVCAR-4 ovarian): 3.04 µM | TGI (K-562 leukemia): 11.6 µM | TGI (NCI-H23 lung): 4.62 µM
